“And” between values parts separate entries of the source, which are not always exact repeats. Equal entries are not always repeated.
Conditions: Liquid, Vibrating tube method

CCCCCCCCCC [decane]
Conditions	mass density
313.16 K, 749 kPa	715.1 kg/m3
313.16 K, 764 kPa	715.3 kg/m3
313.16 K, 784 kPa	715.3 kg/m3
313.16 K, 800 kPa	715.3 kg/m3
313.16 K, 813 kPa	715.2 kg/m3
313.16 K, 837 kPa	715.4 kg/m3
313.16 K, 852 kPa	715.2 kg/m3
313.16 K, 870 kPa	715.4 kg/m3
313.16 K, 891 kPa	715.4 kg/m3
313.16 K, 916 kPa	715.3 kg/m3
313.16 K, 938 kPa	715.3 kg/m3
313.16 K, 958 kPa	715.5 kg/m3
313.16 K, 978 kPa	715.4 kg/m3
323.14 K, 3098 kPa	709.7 kg/m3
323.14 K, 3118 kPa	709.8 kg/m3
323.14 K, 3138 kPa	709.6 kg/m3
323.14 K, 3156 kPa	709.6 kg/m3
323.14 K, 3176 kPa	709.7 kg/m3
323.14 K, 3200 kPa	709.7 kg/m3
323.14 K, 3221 kPa	709.8 kg/m3
323.14 K, 3243 kPa	709.8 kg/m3
323.14 K, 3271 kPa	709.9 kg/m3
323.14 K, 3297 kPa	709.9 kg/m3
323.14 K, 3322 kPa	709.9 kg/m3
323.14 K, 3345 kPa	709.8 kg/m3
323.14 K, 3372 kPa	709.8 kg/m3
323.14 K, 3400 kPa	710 kg/m3
323.14 K, 3430 kPa	709.9 kg/m3
323.14 K, 3451 kPa	710 kg/m3
323.14 K, 3477 kPa	710 kg/m3
323.14 K, 3502 kPa	710.1 kg/m3
323.14 K, 3524 kPa	710.2 kg/m3
323.14 K, 3549 kPa	710.1 kg/m3
323.14 K, 3571 kPa	710.1 kg/m3
323.14 K, 3597 kPa	710.2 kg/m3
323.14 K, 3614 kPa	710.1 kg/m3
323.14 K, 3637 kPa	710.2 kg/m3
323.14 K, 3661 kPa	710.2 kg/m3
323.14 K, 3681 kPa	710.1 kg/m3
323.14 K, 3715 kPa	710.2 kg/m3
323.14 K, 3736 kPa	710.3 kg/m3
323.14 K, 3761 kPa	710.4 kg/m3
323.14 K, 3794 kPa	710.3 kg/m3
323.14 K, 3819 kPa	710.3 kg/m3
323.14 K, 3849 kPa	710.3 kg/m3
323.14 K, 3879 kPa	710.4 kg/m3
323.14 K, 3911 kPa	710.4 kg/m3
323.14 K, 3939 kPa	710.5 kg/m3
323.14 K, 3959 kPa	710.5 kg/m3
323.14 K, 3978 kPa	710.4 kg/m3
323.14 K, 4004 kPa	710.5 kg/m3
323.14 K, 4033 kPa	710.5 kg/m3
323.14 K, 4053 kPa	710.5 kg/m3
323.14 K, 4078 kPa	710.6 kg/m3
323.14 K, 4103 kPa	710.7 kg/m3
323.14 K, 4122 kPa	710.7 kg/m3
323.14 K, 4144 kPa	710.6 kg/m3
323.14 K, 4164 kPa	710.6 kg/m3
323.14 K, 4191 kPa	710.6 kg/m3
323.14 K, 4213 kPa	710.8 kg/m3
323.14 K, 4230 kPa	710.8 kg/m3
323.14 K, 4248 kPa	710.7 kg/m3
323.14 K, 4405 kPa	710.9 kg/m3
323.14 K, 4447 kPa	710.9 kg/m3
323.14 K, 4462 kPa	710.9 kg/m3
323.14 K, 4506 kPa	711 kg/m3
323.14 K, 4528 kPa	711 kg/m3
323.14 K, 4550 kPa	711 kg/m3
323.14 K, 4566 kPa	711 kg/m3
323.14 K, 4587 kPa	711 kg/m3
323.14 K, 4704 kPa	711.1 kg/m3
323.14 K, 4721 kPa	711.2 kg/m3
323.14 K, 4739 kPa	711.2 kg/m3
323.14 K, 4770 kPa	711.2 kg/m3
323.14 K, 4793 kPa	711.3 kg/m3
323.14 K, 4804 kPa	711.2 kg/m3
323.14 K, 4818 kPa	711.3 kg/m3
323.14 K, 4838 kPa	711.3 kg/m3
323.14 K, 4970 kPa	711.3 kg/m3
323.14 K, 5064 kPa	711.5 kg/m3
323.14 K, 5127 kPa	711.5 kg/m3
323.14 K, 5175 kPa	711.5 kg/m3
323.14 K, 5178 kPa	711.6 kg/m3
323.14 K, 5183 kPa	711.6 kg/m3
323.14 K, 5184 kPa	711.5 kg/m3
323.14 K, 5187 kPa	711.6 kg/m3
323.14 K, 5189 kPa	711.6 kg/m3
323.14 K, 5191 kPa	711.6 kg/m3
323.14 K, 5192 kPa	711.5 kg/m3 and 711.6 kg/m3
323.14 K, 5193 kPa	711.5 kg/m3
323.14 K, 5216 kPa	711.7 kg/m3
323.14 K, 5238 kPa	711.6 kg/m3
323.14 K, 5256 kPa	711.7 kg/m3
323.14 K, 5276 kPa	711.6 kg/m3
323.14 K, 5291 kPa	711.7 kg/m3
323.14 K, 5312 kPa	711.6 kg/m3
323.14 K, 5335 kPa	711.7 kg/m3
323.14 K, 5353 kPa	711.8 kg/m3
323.14 K, 5375 kPa	711.7 kg/m3
323.14 K, 5406 kPa	711.8 kg/m3
323.14 K, 5428 kPa	711.7 kg/m3
323.14 K, 5450 kPa	711.7 kg/m3
323.14 K, 5468 kPa	711.9 kg/m3
323.14 K, 5487 kPa	711.9 kg/m3
323.14 K, 5506 kPa	711.8 kg/m3
323.14 K, 5535 kPa	711.9 kg/m3
323.14 K, 5551 kPa	711.8 kg/m3
323.14 K, 5575 kPa	712 kg/m3
323.14 K, 5594 kPa	711.9 kg/m3
323.14 K, 5611 kPa	712 kg/m3
323.14 K, 5631 kPa	712 kg/m3
323.14 K, 5670 kPa	712 kg/m3
323.14 K, 5697 kPa	712.1 kg/m3
323.14 K, 5721 kPa	712.1 kg/m3
323.14 K, 5738 kPa	712.1 kg/m3
323.14 K, 5756 kPa	712 kg/m3
323.14 K, 5770 kPa	712 kg/m3
323.14 K, 5788 kPa	712 kg/m3
323.14 K, 5909 kPa	712.2 kg/m3
323.14 K, 5924 kPa	712.2 kg/m3
323.14 K, 5940 kPa	712.3 kg/m3
323.14 K, 5955 kPa	712.2 kg/m3
323.14 K, 5968 kPa	712.3 kg/m3
323.14 K, 5986 kPa	712.3 kg/m3
323.14 K, 6004 kPa	712.2 kg/m3
323.14 K, 6022 kPa	712.4 kg/m3
323.14 K, 6037 kPa	712.3 kg/m3
323.14 K, 6056 kPa	712.3 kg/m3
323.14 K, 6076 kPa	712.5 kg/m3
323.14 K, 6089 kPa	712.4 kg/m3
323.14 K, 6105 kPa	712.3 kg/m3
323.14 K, 6124 kPa	712.5 kg/m3
323.14 K, 6144 kPa	712.5 kg/m3
323.14 K, 6167 kPa	712.5 kg/m3
323.14 K, 6179 kPa	712.3 kg/m3
323.14 K, 6202 kPa	712.5 kg/m3
323.14 K, 6217 kPa	712.4 kg/m3

Source: the NIST ThermoML archive (doi:10.1021/je800110r)
